Test results as given in ChEMBL document CHEMBL1130642, “Conformationally constrained NO synthase inhibitors: rigid analogs of L-N-iminoethylornithine” (Bioorg Med Chem Lett, 1998).

biological target: T1, Nitric oxide synthase, inducible (Mus musculus, UniProt P29477); test: Compound was evaluated for inhibitory activity against iNOS obtained from RAW 264.7 cells.; assay type: cell-based
T1 sequence (P29477 whole entry): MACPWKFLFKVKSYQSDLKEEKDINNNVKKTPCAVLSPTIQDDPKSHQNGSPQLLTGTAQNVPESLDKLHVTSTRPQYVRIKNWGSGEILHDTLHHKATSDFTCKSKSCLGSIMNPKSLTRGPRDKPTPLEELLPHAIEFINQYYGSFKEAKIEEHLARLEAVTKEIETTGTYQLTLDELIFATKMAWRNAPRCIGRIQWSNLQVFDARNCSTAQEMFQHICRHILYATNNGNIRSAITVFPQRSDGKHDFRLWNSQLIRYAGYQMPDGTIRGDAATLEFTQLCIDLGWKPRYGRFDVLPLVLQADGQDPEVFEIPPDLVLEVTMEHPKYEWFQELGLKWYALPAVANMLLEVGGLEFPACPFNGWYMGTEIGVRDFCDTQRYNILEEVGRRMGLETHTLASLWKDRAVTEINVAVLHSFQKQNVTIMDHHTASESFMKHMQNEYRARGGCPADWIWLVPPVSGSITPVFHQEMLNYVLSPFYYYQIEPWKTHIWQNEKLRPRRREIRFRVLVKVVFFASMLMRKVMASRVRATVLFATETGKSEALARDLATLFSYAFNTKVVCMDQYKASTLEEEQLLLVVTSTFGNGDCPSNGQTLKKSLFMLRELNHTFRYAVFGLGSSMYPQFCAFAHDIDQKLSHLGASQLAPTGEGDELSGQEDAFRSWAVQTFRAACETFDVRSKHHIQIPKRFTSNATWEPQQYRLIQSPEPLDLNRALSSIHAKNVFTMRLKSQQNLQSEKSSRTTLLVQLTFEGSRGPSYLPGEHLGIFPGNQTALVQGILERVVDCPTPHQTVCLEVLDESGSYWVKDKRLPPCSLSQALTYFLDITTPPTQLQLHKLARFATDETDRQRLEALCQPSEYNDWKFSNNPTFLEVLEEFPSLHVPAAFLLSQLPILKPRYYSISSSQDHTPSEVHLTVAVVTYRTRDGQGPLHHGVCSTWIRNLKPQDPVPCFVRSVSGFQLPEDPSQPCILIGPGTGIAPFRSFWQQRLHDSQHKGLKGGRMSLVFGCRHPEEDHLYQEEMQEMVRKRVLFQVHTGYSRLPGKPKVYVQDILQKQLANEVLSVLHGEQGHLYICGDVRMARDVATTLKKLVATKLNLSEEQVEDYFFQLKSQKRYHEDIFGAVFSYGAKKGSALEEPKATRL

| SMILES | IC50 |
| --- | --- |
| NC1=NC[C@@H](C[C@H](N)C(=O)O)C1 | 36 µM |
| CC(=N)N1CC[C@H](C[C@H](N)C(=O)O)C1 | 40 µM |
| CC(=N)N1CC[C@@H](C[C@H](N)C(=O)O)C1 | > 200 µM |
| NC1=NC[C@H](C[C@H](N)C(=O)O)C1 | 25 µM |
| CC(=N)NCCC[C@H](N)C(=O)O [L-NIO] | 9 µM |

The remaining lines, values ahead:

| IC50 | SMILES |
| --- | --- |
| 50 µM | COC(=O)[C@@H](N)[C@H]1CC[C@H](/N=C(/C)N)C1 |
| > 200 µM | COC(=O)[C@@H](N)[C@@H]1CC[C@H](/N=C(/C)N)C1 |
| > 200 µM | COC(=O)[C@@H](N)[C@@H]1CC[C@@H](N=C(C)N)C1 |
| 47 µM | COC(=O)[C@@H](N)[C@H]1CC[C@@H](N=C(C)N)C1 |
